Experimental data taken from patent US7030213B2, “Conformationally stabilized cell adhesion peptides” (La Jolla Cancer Research Institute, priority 1987, dated 2006).
Primed or numbered codes have the meaning given here. Where no end group is shown, it is not given here. [ ]: non-standard residue; d: D form. Pen′ = Penicillamine

Tests used:
[1] = system: attachment of normal rat kidney cells to vitronectin; experiment: Cell adhesion assay: inhibition of attachment of normal rat kidney cells to vitronectin; type: cell-based; settings: normal rat kidney cells on vitronectin-coated wells, peptide 0 to 10.0 mM, 1 hour at 37° C., FIG. 2
Experimental: (§1) Fibronectin and vitronectin were purified from human plasma according to the methods of Ruoslahti et al., (1982) Meth. Enz. 82:803; and Hayman et al., (1983) PNAS 80:4003, respectively, both of which are incorporated herein by reference. The adhesion of normal rat kidney cells to fibronectin and vitronectin was assayed as described, in Ruoslahti et al., Meth. Enz. supra. Briefly, 0.1 ml solution of fibronectin or vitronectin at a concentration of 12 μg/ml in 0.1M PBS was placed in each well of 96-well plastic microtiter plates and left for 2 hours at room temperature. The unattached protein was removed by washing three times with PBS.
(§2) One day before the assay, a confluent culture of normal rat kidney cells was split 1:2 using standard tissue culture trypsin. The cells were washed three times with PBS, pH 7.2. […] Before the last centrifugation, a sample was taken and cell numbers and viability by trypan blue exclusion are determined. […]
(§3) The unattached cells were removed simply by removing the medium and washing the wells. […] The cells were then fixed with 3% paraformaldehyde in PBS and stained with 1% toluidine blue, paraformaldehyde in PBS, and attached cells counted. Their number was determined using a cell counter that is capable of counting cells attached to a surface (Dynatech Laboratories, Alexandria, Va.). […]

[2] = system: attachment of normal rat kidney cells to fibronectin; experiment: Cell adhesion assay: inhibition of attachment of normal rat kidney cells to fibronectin; type: cell-based; settings: normal rat kidney cells on fibronectin-coated wells; peptide 0 to 10.0 mM; 1 hour at 37° C.; FIG. 2
Experimental: as §1, §2, §3

Substance | molar concentration inhibiting attachment to vitronectin, lower than the linear peptide ([1]; relative to linear peptide) [fold] | inhibition of attachment to fibronectin [2] | inhibition of attachment to vitronectin [1]
Gly-Pen-Gly-Arg-Gly-Asp-Ser-Pro-Cys-Ala [cyclic peptide] | 10 | ineffective | –
Gly-Pen-Gly-Arg-Gly-Asp-Ser-Pro-Cys (G[Pen′]GRGDSPC; cysteine pairing not given here) [linear peptide, non-cyclized, or linear, peptide used as comparator] | – | inhibited attachment of cells to both substrates at relatively similar concentrations | inhibited attachment of cells to both substrates at relatively similar concentrations
